Experimental data as given in paper PMC3193285 (ACS Medicinal Chemistry Letters, 2011).
Converted amounts (≈) assume the structure as drawn. Where two headings read alike, the source gives them in different places.

Assays:
[1] = Metabolic stability in mouse hepatic microsomes; format: in vitro ADME; settings: percent remaining at 1 h
[2] = Plasma stability, human plasma; format: in vitro ADME; settings: Plasma/PBS, compound at 1 μM, 3 h
[3] = Metabolic stability in human hepatic microsomes; format: in vitro ADME; settings: percent remaining at 1 h
[4] = Aqueous kinetic solubility; format: physicochemical; settings: aqueous solution, pH 6.2
[5] = target: T1, CFLT3 (Fms-like tyrosine kinase) (Homo sapiens, UniProt P36888); experiment: Ambit KinomeScreen, FLT3; settings: 10 μM
T1 sequence (P36888 27-993): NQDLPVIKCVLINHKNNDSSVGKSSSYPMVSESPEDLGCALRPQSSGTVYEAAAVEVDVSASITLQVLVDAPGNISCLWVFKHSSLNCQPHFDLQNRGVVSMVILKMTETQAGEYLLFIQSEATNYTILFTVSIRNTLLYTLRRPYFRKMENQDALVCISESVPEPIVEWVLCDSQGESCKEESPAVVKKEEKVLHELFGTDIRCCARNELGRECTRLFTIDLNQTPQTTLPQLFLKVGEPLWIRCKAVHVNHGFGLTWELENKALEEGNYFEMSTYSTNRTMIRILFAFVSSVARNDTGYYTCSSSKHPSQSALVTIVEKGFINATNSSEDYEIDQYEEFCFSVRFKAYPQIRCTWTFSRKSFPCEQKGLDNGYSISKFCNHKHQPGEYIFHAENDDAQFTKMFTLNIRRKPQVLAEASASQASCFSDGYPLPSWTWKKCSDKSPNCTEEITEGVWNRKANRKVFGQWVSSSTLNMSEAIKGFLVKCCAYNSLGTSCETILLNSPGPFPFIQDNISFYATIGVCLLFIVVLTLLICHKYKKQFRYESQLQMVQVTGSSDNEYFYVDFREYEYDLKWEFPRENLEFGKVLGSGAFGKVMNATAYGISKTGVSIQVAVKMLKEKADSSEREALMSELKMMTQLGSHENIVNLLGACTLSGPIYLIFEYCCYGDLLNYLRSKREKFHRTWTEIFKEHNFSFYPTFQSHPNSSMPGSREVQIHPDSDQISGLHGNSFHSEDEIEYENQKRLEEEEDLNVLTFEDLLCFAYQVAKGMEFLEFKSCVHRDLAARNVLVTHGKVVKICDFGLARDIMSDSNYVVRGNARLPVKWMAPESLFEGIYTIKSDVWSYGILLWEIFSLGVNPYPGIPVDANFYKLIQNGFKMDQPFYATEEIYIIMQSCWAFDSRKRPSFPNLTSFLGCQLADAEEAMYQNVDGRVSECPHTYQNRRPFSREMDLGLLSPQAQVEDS

TNF-α = experiment: TNF-α-induced NF-κB activation luciferase reporter counterscreen; format: cell-based; settings: Homo sapiens
[6] = tested on: NF-κB activation via doxorubicin-induced pathway; experiment: NF-κB selectivity assay, HEK 293-T cells, doxorubicin induction; format: cell-based, human
[7] = tested on: NF-κB activation via PMA/ionomycin; experiment: NF-κB selectivity assay, HEK 293-T cells, PMA/ionomycin induction; format: cell-based, human
[8] = target: RIOK2 (right open reading frame) (Homo sapiens, UniProt Q9BVS4); experiment: Ambit KinomeScreen, RIOK2; settings: 10 μM
RIOK2 (right open reading frame), sequence (Q9BVS4 whole entry, species assumed): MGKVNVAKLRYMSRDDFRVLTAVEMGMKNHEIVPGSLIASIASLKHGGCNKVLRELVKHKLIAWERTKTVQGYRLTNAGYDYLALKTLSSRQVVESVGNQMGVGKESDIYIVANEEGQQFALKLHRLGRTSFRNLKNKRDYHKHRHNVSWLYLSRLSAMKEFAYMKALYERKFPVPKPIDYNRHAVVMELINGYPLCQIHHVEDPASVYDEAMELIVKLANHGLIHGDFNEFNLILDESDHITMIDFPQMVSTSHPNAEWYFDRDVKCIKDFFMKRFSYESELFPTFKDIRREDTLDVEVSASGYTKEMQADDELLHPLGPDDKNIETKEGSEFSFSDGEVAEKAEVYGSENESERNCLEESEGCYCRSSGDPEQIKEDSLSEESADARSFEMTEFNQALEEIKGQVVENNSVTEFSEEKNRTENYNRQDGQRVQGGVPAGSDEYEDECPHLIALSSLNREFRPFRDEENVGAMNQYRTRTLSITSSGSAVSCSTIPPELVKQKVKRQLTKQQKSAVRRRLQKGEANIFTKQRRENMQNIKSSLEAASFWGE

[9] = tested on: NCI 60 human tumor cell line
443 kinases = experiment: Ambit KinomeScreen panel; settings: 10 μM
[10] = Plasma protein binding, mouse plasma; format: in vitro ADME
[11] = Plasma protein binding, human plasma; format: in vitro ADME
[12] = Plasma stability, mouse plasma; format: in vitro ADME; settings: Plasma/PBS, compound at 1 μM, 3 h
[13] = read-out: TNF-α (NOD1-dependent) IC50

Cc1ccc(S(=O)(=O)n2c(N)nc3ccccc32)cc1 [1c]
microsome stability [1]: 0.8 % remaining
plasma stability [2]: 100/100 % remaining
microsome stability [3]: 41.8 % remaining
solubility at 18 h [4]: 2 µg/mL (≈ 6.96 µM)
Inhibitory activity (reported as % control), CFLT3 [5]: 27 % C
IC50 (TNF-α; [13]): > 20 µM
inhibition of NF-κB activation via doxorubicin-induced pathway [6]: did not inhibit
inhibition of NF-κB activation via PMA/ionomycin [7]: did not inhibit
Inhibitory activity (reported as % control), RIOK2 [8]: 6 % C
cytotoxicity in NCI 60 screen [9]: noncytotoxic
activity against 443 kinases (443 kinases): little activity
plasma protein binding ([10]; 1 μM): 95.0 % bound
plasma protein binding ([10]; 10 μM): 95.5 % bound
plasma protein binding ([11]; 1 μM): 97.5 % bound
plasma protein binding ([11]; 10 μM): 97.7 % bound
plasma stability [12]: 100/100 % remaining

Nc1nc2ccccc2n1S(=O)(=O)c1ccccc1 [4c]
IC50 (TNF-α; [13]): > 20 µM

Cc1ccc(S(=O)(=O)n2cnc3ccccc32)cc1 [6c]
IC50 (TNF-α; [13]): > 20 µM

CC(=O)c1ccc(N2CCN(S(=O)(=O)c3ccc4c(c3)CC(C)N4C(=O)C3CC3)CC2)cc1 (stereo not shown) [7a]
IC50 (TNF-α; read-out: TNF-α IC50): > 20 µM

Cc1ccc(S(=O)(=O)n2c(S)nc3ccc(C)cc32)cc1 [8c]
IC50 (TNF-α; [13]): > 20 µM

Cc1ccc(S(=O)(=O)n2c(N)nc3cc(C)c(C)cc32)cc1 [9c]
IC50 (TNF-α; [13]): > 20 µM

Nc1nc2ccccc2n1Cc1ccc(Cl)cc1 [10c]
IC50 (TNF-α; [13]): > 20 µM

Nc1nc2ccccc2n1CCC(=O)c1ccc(Cl)cc1 [13c]
IC50 (TNF-α; [13]): > 20 µM

COc1ccc(C(=O)Cn2c(N)nc3ccccc32)cc1 [14c]
IC50 (TNF-α; [13]): > 20 µM

Nc1nc2ccccc2n1C(=O)Cc1ccccc1 [15c]
IC50 (TNF-α; [13]): > 20 µM

O=C(C1CC1)N1CCc2cc(S(=O)(=O)N3CCN(c4ccc(Cl)cc4)CC3)ccc21 [18a]
IC50 (TNF-α; read-out: TNF-α IC50): > 20 µM

N#Cc1ccc(N2CCN(S(=O)(=O)c3ccc4c(c3)CCN4C(=O)C3CC3)CC2)cc1 [19a]
IC50 (TNF-α; read-out: TNF-α IC50): > 20 µM

CC(=O)c1ccc(N2CCN(S(=O)(=O)c3ccc4c(c3)CCN4C(=O)C3CC3)CC2)cc1 [20a]
IC50 (TNF-α; read-out: TNF-α IC50): > 20 µM

O=C(C1CC1)N1CCc2cc(S(=O)(=O)N3CCN(c4ccc([N+](=O)[O-])cc4)CC3)ccc21 [21a]
IC50 (TNF-α; read-out: TNF-α IC50): > 20 µM

CCC(=O)N1CCc2cc(S(=O)(=O)N3CCN(c4ccc(C(C)=O)cc4)CC3)ccc21 [22a]
IC50 (TNF-α; read-out: TNF-α IC50): > 20 µM

CCC(=O)N1CCc2cc(S(=O)(=O)N3CCN(c4ccc([N+](=O)[O-])cc4)CC3)ccc21 [23a]
IC50 (TNF-α; read-out: TNF-α IC50): > 20 µM

CC(=O)c1ccc(N2CCN(S(=O)(=O)c3ccc4c(c3)CCN4C(C)=O)CC2)cc1 [25a]
IC50 (TNF-α; read-out: TNF-α IC50): > 20 µM

CC(=O)N1CCc2cc(S(=O)(=O)N3CCN(c4ccc([N+](=O)[O-])cc4)CC3)ccc21 [26a]
IC50 (TNF-α; read-out: TNF-α IC50): > 20 µM

CC(=O)N1CCc2cc(S(=O)(=O)N3CCN(c4ccc(Cl)cc4)CC3)ccc21 [27a]
IC50 (TNF-α; read-out: TNF-α IC50): > 20 µM
